Consider five molecules from patent US7700584B2 (Hangzhou Minsheng Pharmaceuticals Co., Ltd., priority 2004, dated 2010).

Where a name gives a salt, the structure may show the parent alone. Read-outs that look alike come from different tables or passages of the source. Bounds are passed on as bounds.

Series [1] concerns U-937 human histocytic lymphoma. Description: In vitro inhibition rate to tumor cells (MTT), U-937. It counts as cell-based. The settings on record: for inhibition rate, Results (%) U-937: 50 μg/ml; for inhibition at 50 µg/mL: Homo sapiens, U-937, 50 μg/ml, read-out: inhibition rate, Results (%) U-937.
The test system of series [2] is A-549 human lung adenocarcinoma. In words: In vitro inhibition rate to tumor cells (MTT), A-549. It is filed as cell-based. The note with it: for inhibition at 50 µg/mL: Homo sapiens, A549, 50 μg/ml, read-out: inhibition rate, Results (%) A-549.
Series [3] deals with Bel-7402 human hepatic carcinoma. Description: In vitro inhibition rate to tumor cells (MTT), Bel-7402. The settings on record: for inhibition rate, Results (%) Bel-7402: 50 μg/ml; for inhibition at 50 µg/mL: Homo sapiens, Bel-7402, 50 μg/ml, read-out: inhibition rate, Results (%) Bel-7402. It is filed as cell-based.
For series [4], the system named is MCF-7 human mammary adenocarcinoma. In words: In vitro inhibition rate to tumor cells (MTT), MCF-7. It is filed as cell-based. The settings on record: Homo sapiens, MCF7, 50 μg/ml, read-out: inhibition rate, Results (%) MCF-7.
In series [5] the test system is SMMC-7721 human hepatic carcinoma. Description: In vitro inhibition rate to tumor cells (MTT), SMMC-7721. It counts as cell-based. The note with it: for inhibition at 50 µg/mL: Homo sapiens, SMMC-7721, 50 μg/ml, read-out: inhibition rate, Results (%) SMMC-7721.
Series [6] deals with HL-60 human promyelocytic leukemia. In words: In vitro inhibition rate to tumor cells (MTT), HL-60. The settings on record: for inhibition rate, Results (%) HL-60: 50 μg/ml; for inhibition at 50 µg/mL: Homo sapiens, HL-60, 50 μg/ml, read-out: inhibition rate, Results (%) HL-60. It counts as cell-based.
In series [7] the test system is Hela human cervical carcinoma. Description: In vitro inhibition rate to tumor cells (MTT), Hela. It counts as cell-based. The note with it: Homo sapiens, HeLa, 50 μg/ml, read-out: inhibition rate, Results (%) Hela.
Series [8] concerns LLC mouse Lewis lung carcinoma. In words: In vitro inhibition rate to tumor cells (MTT), LLC. It is filed as cell-based. The settings on record: 50 μg/ml; for inhibition at 50 µg/mL: Mus musculus, Lewis lung carcinoma.
Series [9] deals with T1, HIV-1 proteinase (HIV-1 PR) (Human immunodeficiency virus type 1 group M subtype B, UniProt P04585).
T1 construct: HIV-1 proteinase digests the fluorescent-labeled substrate; purchased
Description: Screening for in vitro activity against HIV-1 proteinase. It counts as biochemical. The protocol:
Principle of the test: HIV-1 proteinase digests the fluorescent-labeled substrate in an optimal reaction condition and system. The activity of the enzyme can be reflected by the fluorescent intensity in the product of the enzyme reaction. Adding a sample into the reaction system can be used for screening the inhibitor of the enzyme.
1. HIV-1 PR: commercially available, stored at −85° C.
2. Treatment of the samples: Before use, sample was dissolved in DMSO at a suitable concentration, then serially diluted (5×) with double distilled water, five serial dilutions per sample.
3. Positive control: indinavir, purchased from […].
4. Methods: The diluted sample was added into the reaction buffer containing the fluorescent-labeled substrate. Then the genetic engineered target enzyme was added, and incubated in the optimal reaction condition. The fluorescent value was measured with a FLUO star Galaxy luminoscope.

Series [10] concerns the target T2, HIV-1 reverse transcriptase (Human immunodeficiency virus type 1 group M subtype B, UniProt P04585).
T2 construct: purchased
In words: Screening for the in vitro activity against the HIV-1 reverse transcriptase. It is filed as biochemical. On the procedure: Principle of the test: The template to which the HIV-1 reverse transcriptase interacts was covered onto the enzyme-lined template. In the optimal reaction conditions and system, HIV-1 RT will put the substrate comprising Biotin-dUTP onto the reaction template. The activity of the enzyme was measured as the amount of the integrating Biotin-dUTP in the reaction by using streptavidin-labeled horseradish peroxidase. Adding the sample to the reaction system can identify inhibitor of the enzyme.
1. HIV-1 RT: commercially available.
2. Treatment of the samples: Before use, the sample was dissolved in DMSO at a suitable concentration, then serially diluted (5×) with double distilled water, five serial dilutions per sample.
4. Methods: The diluted sample was added into the reaction buffer containing Biotin-dUTP and the genetic engineered target enzyme, and incubated in the optimal reaction conditions. A streptavidin-labeled horseradish peroxidase was added to visual the system, and OD450 was measured.

The target in series [11] is T3, HIV-1 integrase (HIV-1 IN) (Human immunodeficiency virus type 1 group M subtype B, UniProt P04585).
T3 construct: a purified HIV-1 integrase was added into each well; purchased
Description: Screening for the activity against HIV-1 integrase. It is filed as biochemical. The protocol: Principle of the test: A synthetic oligonucleotide of 30 nt was used as the donor substrate. A synthetic oligonucleotide of 20 nt was used as the target substrate. A 96-well plate was covered by the donor substrate, and a purified HIV-1 integrase was added into each well. ELISA was performed to measure the product of the target DNA chain transfer. A biotin-labeled alkali phosphatase was used to visual the system. OD value was measured by an Enzyme-linked Detector. Add a sample into the reaction system for screening the inhibitor of the enzyme.
1. HIV-1 IN: commercially available.
2. Treatment of the samples: Before use, the sample was dissolved in water or DMSO at a suitable concentration, then serially diluted (5×), four serial dilutions per sample. The stock solutions of two samples were 100-fold diluted with DMSO, then 5-fold diluted, four serial dilutions per sample. Positive control: S-y, provided by Shanghai Organic Chemistry Institute.
3. The donor substrate and target substrate: synthesized by Shanghai Biological Engineering Company (Shanghai Shenggong).
4. Methods: The diluted sample was added into a 96-well plate covered by the donor substrate, and then added into the reaction buffer containing the genetic engineered target enzyme and biotin-target substrate, incubated in the optimal reaction conditions. A biotin-labeled alkali phosphatase was used to visual the system to determine the absorbance at 450 nm (OD450).

Series [12] relates to Hepatitis B virus (HBV). It is filed as cell-based.
The test system of series [13] is HepG2 cells. In words: Cell status of HepG2 cells treated with sample (HBV screening). It is filed as cell-based. The note with it: 200 μg/ml, HepG2, four days after infection.
Series [14] deals with MDCK (dog kidney) cells. In words: Toxicity TC50 of the samples in MDCK cells (influenza screening). The settings on record: concentration of 50% toxicity, given as dilution of the stock solution.

As to `CC(C)C1CC23OC1(O)C/C(=C\NC(C)(C)C)C2CCC3C` (centres unmarked) [Compound 15, Curcumol t-butyl amine], the melting point was in the range of 79 to 80 °C. The “inhibition rate, Results (%) U-937” value in series [1] (Table 1) is listed as 57.32%. For the same molecule, in series [1] (Table 2 (repeated screening)), the “inhibition rate, Results (%) U-937” value is 50.12%. For the same molecule, in series [2] (50 μg/ml, Table 1), the “inhibition rate, Results (%) A-549” value is 17.43%. The inhibition at 50 µg/mL in series [2] (Table 2 (repeated screening)) is 12.3%. Moreover, the “inhibition rate, Results (%) Bel-7402” value in [3] (Table 1) was found to be 32.98%. Moreover, the “inhibition rate, Results (%) Bel-7402” value in [3] (Table 2 (repeated screening)) is 31.20%. Moreover, in [4] (Table 1), the inhibition at 50 µg/mL is 65.3%. Also, the inhibition at 50 µg/mL in [4] (Table 2 (repeated screening)) is 60.1%. For the same molecule, in series [5] (50 μg/ml, Table 2 (repeated screening)), the “inhibition rate, Results (%) SMMC-7721” value is on record as −8.60%. In addition, the inhibition at 50 µg/mL in series [5] (Table 1) was -2.5%. Also, in series [6] (Table 1), the “inhibition rate, Results (%) HL-60” value came to 8.23%. Besides, the “inhibition rate, Results (%) HL-60” value in series [6] (Table 2 (repeated screening)) turned out to be 2.98%. Further, the inhibition at 50 µg/mL in [7] (Table 1) was 70%. In addition, the inhibition at 50 µg/mL in series [7] (Table 2 (repeated screening)) stood at 71.4%. The “inhibition rate, Results (%) LLC” value in [8] (Table 1) is listed as −11.83%. Further, the “inhibition rate, Results (%) LLC” value in [8] (Table 2 (repeated screening)) was −10.12%.

`C=C1CC2(OC(=O)CCC)OC3(CC2C(C)C)C(C)CCC13` (centres unmarked) [Compound 2, Curcumol butyrate]: the inhibition at 50 µg/mL is 71.2% in series [1] (Table 1); 70.3% in series [1] (Table 2 (repeated screening)); 4.93% in [2] (Table 1); 9.23% in series [2] (Table 2 (repeated screening)); 23.3% in [3] (Table 1); 12.8% in series [3] (Table 2 (repeated screening)). Further, the inhibition at 50 µg/mL in [4] (Table 1) was 46%; in [4] (Table 2 (repeated screening)), 41.8%; in series [5] (Table 1), 12.3%; in series [5] (Table 2 (repeated screening)) it was 14.7%; in [6] (Table 1), 12.3%; in series [6] (Table 2 (repeated screening)), 18%. The inhibition at 50 µg/mL was determined as 70.6% in series [7] (Table 1); 75.2% in series [7] (Table 2 (repeated screening)); 2.98% in series [8] (Table 1); 0.32% in [8] (Table 2 (repeated screening)); 12.7% in series [9] (read-out: Inhibition rate, 50 μg/ml). The inhibition at 0.08 µg/mL in [9] (0.08 μg/ml, read-out: Inhibition rate) is 4.13%. Besides, the inhibition at 0.4 µg/mL in [9] (0.40 μg/ml, read-out: Inhibition rate) came to 8.64%. In addition, in series [9] (2.0 μg/ml, read-out: Inhibition rate), the inhibition at 2 µg/mL is 2.98%. The inhibition at 10 µg/mL in series [9] (10 μg/ml, read-out: Inhibition rate) turned out to be 12.2%. Besides, the IC50 is over 163 µM in series [9] (IC50, five 5× serial dilutions from 50 μg/ml); under 392 µM in [10] (IC50, initial concentration 1/150 of the stock solution); 116 µM in [11]. The “inhibition rate of HIV-1 reverse transcriptase” value in series [10] (120 ug/ml) is recorded as 60%. Besides, the “(Value of the positive control - Measured Value) Value of the positive control × 100%” value in series [12] (200 μg/ml, decrease of HBeAg relative to positive control) stood at 68.34%. Besides, the “OD450 of HBeAg” value in series [12] (200 μg/ml, supernatant four days after infection, positive control 1.917, negative 0.057) amounted to 0.607. The “activity against HBV (in words)” value in series [12] (primary screening, HBV e antigen, HepG2, 13 samples) is reported as “had the activity against HBV”. Also, the Cell status entry in series [13] is recorded as “Normal”. Besides, the TC50 in series [14] is 1/12150 of the stock solution.

As for `CC(C)C1CC23OC1(O)C/C(=C\Nc1ccc(O)cc1)C2CCC3C` (centres unmarked) (as salt: hydrochloride) [Compound 6, Curcumol p-hydroxy aniline hydrochloride], the melting point lay within 147.5 to 149.5 °C.

`CC(C)C1CC23OC1(O)C/C(=C\NC(C)(C)C)C2CCC3C` (centres unmarked) (as salt: hydrochloride) [Compound 16, Curcumol t-butyl amine hydrochloride] returned a melting point of 115 to 116 °C.

As to `CC(C)C1CC23OC1(O)CC(=CN1CCNCC1)C2CCC3C` (centres unmarked) (as salt: hydrochloride) [Compound 8, Curcumol piperazine hydrochloride], the melting point was 150 to 152 °C.
